According to publication PMC9959048, “Lipidation of Naturally Occurring α-Helical Antimicrobial Peptides as a Promising Strategy for Drug Design” (International Journal of Molecular Sciences, 2023):
≈ marks a conversion by molar mass, not a printed value. Residues, ends and D or L forms follow the SMILES beside them. *: point of attachment. Palmitoyl = CCCCCCCCCCCCCCCC(=O)*; Decanoyl = CCCCCCCCCC(=O)*; Octanoyl = CCCCCCCC(=O)*

Columns and labels:
E. coli PCM2057 = assay type: cell-based, Escherichia coli; settings: Mueller–Hinton broth, inoculum 5 × 10^5 CFU/mL, 24 h, 37 °C, absorbance 600 nm, triplicate
Method: (§1) The evaluation of the antimicrobial activity of the synthesized lipopeptides was performed against the following reference bacterial and fungal strains: Staphylococcus aureus PCM 1650, Staphylococcus aureus PCM 2054, Staphylococcus epidermidis PCM 521, Staphylococcus epidermidis PCM 2118, Escherichia coli PCM 2057, Candida albicans PCM 2566, Candida glabrata CCM 8270, Candida krusei CCM 8271, Candida parapsilosis CCM 8260.
(§2) For the initial cultivation of the bacteria and fungi, Luria-Bertani broth (LB, Biomaxima, Lublin, Poland) and Sabouraud Dextrose broth (SB, Biomaxima, Lublin, Poland) were used, respectively. Antimicrobial properties of the compounds were analyzed through the determination of MIC (minimal inhibitory concentrations) by my means of the serial micro-dilution technique according to the guidelines of Clinical & Laboratory Standard Institute (CLSI) established for aerobic bacteria and yeasts.
(§3) According to the procedures, Mueller–Hinton broth (MHB) was used as the working medium for the analysis of the bacterial susceptibility, while RPMI-1640 (with L-glutamine, without sodium bicarbonate) growth medium buffered with MOPS (morpholinepropanesulfonic acid) and supplemented with 2% glucose was used for the experiments with the fungi.
(§4) The experiments were carried out for 24 h at 37 and 35 °C for the bacteria and fungi, respectively. Then, the absorbance was measured at 600 nm for each well of the 96-well plate using a microplate reader (Sunrise TM, Tecan Trading AG, Männedorf, Switzerland). Based on the obtained results, the degree of inhibition of the growth of microorganisms (expressed in %) in the presence of the tested compounds range was determined with respect to the control probes. Inoculated wells without peptide were treated as a positive control (100% growth), and the wells containing working medium only were defined as a negative control (0% growth). All measurements were repeated in triplicate.

C. krusei CCM8271 = assay type: cell-based, Candida krusei; settings: RPMI-1640 with MOPS and 2% glucose, inoculum 5 × 10^3 CFU/mL, 24 h, 35 °C, absorbance 600 nm, triplicate
Method: as §1, §2, §3, §4

POPG liposomes = assay: CD, α-helix content in POPG liposomes; assay type: physicochemical; settings: 25 °C, peptide 0.15 mg/mL, 1.3 mM POPG; for α-Helix percentage, POPG: from ellipticity at 222 nm
Method: (§5) Large unilamellar vesicles (LUV) were obtained by extrusion of MLV liposomes through polycarbonate membrane filters with a pore diameter of 100 nm (Whatman International Ltd., Kent, UK) using a mini-extruder (Avanti Polar Lipids, Inc., Alabaster, AL, USA).
(§6) CD experiments were carried out at 25 °C using a Jasco J-815 spectropolarimeter in the wavelength range 185–260 nm. The concentration of the lipopeptides was 0.15 mg/mL. The CD spectra were recorded in water, PBS (pH 7.4), 1.3 mM POPC and 1.3 mM POPG. The results are plotted as the mean molar ellipticity per one amino acid residue (MRME, deg cm^2 dmol^−1) as a function of the wavelength (nm). Additionally, we performed a conformational analysis of the selected compounds in the presence of S. aureus cells. […] The mixtures were then incubated for 2 h before recording the CD spectra.
(§7) The percentage of the α-helical structure was calculated based on the mean molar ellipticity at 222 nm using the formula: fH=θ222−3000/−36000−3000·100% where θ222 corresponds to the value of the mean molar ellipticity at a wavelength of 222 nm.

C. parapsilosis CCM 8260 = assay type: cell-based, Candida parapsilosis; settings: RPMI-1640 with MOPS and 2% glucose, inoculum 5 × 10^3 CFU/mL, 24 h, 35 °C, absorbance 600 nm, triplicate
Method: as §1, §2, §3, §4

S. aureus cells = assay: TEM of S. aureus cells treated with lipopeptide; assay type: cell-based, Staphylococcus aureus; settings: C8-LL-I at 25 µg/mL, 5 × 10^5 CFU/mL, incubated overnight at 37 °C
Method: The cells were centrifuged (8000 rpm, 15 min) and resuspended in fresh media to obtain a high-density cell suspension (5 × 10^5 CFU/mL). […] Afterward, the cells were centrifuged (8000 rpm, 15 min) and washed three times with PBS. The bacterial cells were fixed with 2.5% glutaraldehyde buffered at pH 6.5 with 0.1 M sodium cacodylate (Polysciences, Warrington, PA, USA) for 6 h at room temperature, as described earlier [52]. Additional fixation was performed with a 1% osmium tetroxide solution (Polysciences, Warrington, PA, USA) for 2 h at 4 °C. The cells were centrifuged and resuspended in 0.1 M cacodylate buffer, centrifuged again and dehydrated with ethanol. The bacteria were embedded in Epon 812 resin (Sigma-Aldrich, Darmstadt, Germany) at room temperature. A Leica UC7 ultramicrotome (Wetzlar, Germany) was used to obtain ultra-thin sections (55 nm). As contrasting agents, lead citrate and uranyl acetate were used. Cells were visualized using a Tecnai Spirit BioTWIN (EFI, Hillsboro, OR, USA) microscope at 120 kV.

C. glabrata CCM8270 = assay type: cell-based, Candida glabrata; settings: RPMI-1640 with MOPS and 2% glucose, inoculum 5 × 10^3 CFU/mL, 24 h, 35 °C, absorbance 600 nm, triplicate
Method: as §1, §2, §3, §4

S. aureus PCM1650 = assay type: cell-based, Staphylococcus aureus; settings: Mueller–Hinton broth, inoculum 5 × 10^5 CFU/mL, 24 h, 37 °C, absorbance 600 nm, triplicate
Method: as §1, §2, §3, §4

S. aureus PCM2054 = assay type: cell-based, Staphylococcus aureus; settings: Mueller–Hinton broth, inoculum 5 × 10^5 CFU/mL, 24 h, 37 °C, absorbance 600 nm, triplicate
Method: as §1, §2, §3, §4

C. albicans PCM2566 = assay type: cell-based, Candida albicans; settings: RPMI-1640 with MOPS and 2% glucose, inoculum 5 × 10^3 CFU/mL, 24 h, 35 °C, absorbance 600 nm, triplicate
Method: as §1, §2, §3, §4

POPC liposomes = assay: CD, α-helix content in POPC liposomes; assay type: physicochemical; settings: 25 °C, peptide 0.15 mg/mL, 1.3 mM POPC; for α-Helix percentage, POPC: from ellipticity at 222 nm
Method: as §5, §6, §7

S. epidermidis PCM521 = assay type: cell-based, Staphylococcus epidermidis; settings: Mueller–Hinton broth, inoculum 5 × 10^5 CFU/mL, 24 h, 37 °C, absorbance 600 nm, triplicate
Method: as §1, §2, §3, §4

S. epidermidis PCM2118 = assay type: cell-based, Staphylococcus epidermidis; settings: Mueller–Hinton broth, inoculum 5 × 10^5 CFU/mL, 24 h, 37 °C, absorbance 600 nm, triplicate
Method: as §1, §2, §3, §4

[1] = Dynamic light scattering of lipopeptide assemblies; assay type: physicochemical; settings: DLS, sonicated 10 min, incubated 1 h, 90° side scatter; for hydrodynamic diameter: 2 mM in PBS pH 7.4, 25 °C
Method: The hydrodynamic diameters of the lipopeptide nanoaggregates were examined by the Litesizer 500 (Anton-Paar GmbH, Graz, Austria) at 25 °C. The measurements were carried out at various lipopeptide concentrations ranging from 0.5 to 2 mM and from 0.25 to 2 mM, in water and PBS, respectively. Two-fold serial dilutions were used to obtain the sequential concentrations. Each sample was sonicated for 10 min followed by incubation for 1 h at 25 °C and transferred to the polystyrene cuvette. The detector was positioned at a side scatter position (90°). The analysis of the obtained results and report generation was performed with KalliopeTM software (Anton-Paar GmbH, Graz, Austria).

[2] = test system: human prostate cancer cells (PC3 line, ATCC); assay: MTT cytotoxicity assay; assay type: cell-based; settings: IC50 against HaCaT divided by IC50 for PC3
Method: (§8) The prepared plates were further incubated for 48 h. […] The control cell viability was assumed to be 100%. Three independent experiments were carried out in three repetitions.

[3] = test system: human breast cancer cells (MCF-7 line, ATCC); assay: MTT cytotoxicity assay; assay type: cell-based; settings: IC50 against HaCaT divided by IC50 for MCF-7
Method: as §8

POPG LUVs = assay: Isothermal titration calorimetry, binding to POPG LUVs; settings: ITC, 25 °C, 0.05 or 0.07 mM peptide titrated with 1.3 or 1.8 mM POPG LUVs; one set of sites model (C10-LL-I: two sets of sites, first line)
Method: as §5
The thermodynamic parameters of the interactions of the lipopeptides with POPG and POPC liposomes were determined by isothermal titration calorimetry (ITC). Measurements were performed at 25 °C using an AutoITC microcalorimeter (MicroCal Inc., Northampton, MA, USA) with a 1.4491 mL sample and reference cells. The experiment consisted in the titration of a buffered peptide solution with a concentration of 0.05 and/or 0.07 mM with a buffered solution containing POPG or POPC LUVs with a lipid concentration of 1.3 and 1.8 mM (10.02 µL; 29 injections, 2 µL for the first injection only), as it was described previously. The result of the titration was a thermogram showing a series of peaks corresponding to the titration steps. A titration curve was obtained after integration of the peak areas. The obtained isotherms were fitted to the “one set of sites” or “two sets of sites” models available in the ORIGIN 7.0 (MicroCal Inc., Northampton, MA, USA), which made it possible to determine the enthalpy (ΔH), the binding constant (KITC) and the stoichiometry (N) of the interactions between the lipopeptide and the lipids. The following formula was used to calculate the entropy change (ΔS) and the Gibbs free energy (ΔG): ΔG=−RTln(55.5KITC)=ΔH−TΔS where: factor 55.5 is the molar concentration of water, R is the gas constant (1.986 cal·mol^−1·K^−1), and T is the absolute temperature.

fungi Candida spps = assay: MIC, antifungal activity; assay type: cell-based; settings: text summary of Table 1, Candida strains
Method: as §1
For the initial cultivation of the bacteria and fungi, Luria-Bertani broth (LB, Biomaxima, Lublin, Poland) and Sabouraud Dextrose broth (SB, Biomaxima, Lublin, Poland) were used, respectively. Antimicrobial properties of the compounds were analyzed through the determination of MIC (minimal inhibitory concentrations) by my means of the serial micro-dilution technique according to the guidelines of Clinical & Laboratory Standard Institute (CLSI) established for aerobic bacteria and yeasts. […]
The experiments were carried out for 24 h at 37 and 35 °C for the bacteria and fungi, respectively. Then, the absorbance was measured at 600 nm for each well of the 96-well plate using a microplate reader (Sunrise TM, Tecan Trading AG, Männedorf, Switzerland). Based on the obtained results, the degree of inhibition of the growth of microorganisms (expressed in %) in the presence of the tested compounds range was determined with respect to the control probes. […]

[4] = 0.5 mM salt-free aqueous solution, 25 °C

Row | Structure (SMILES) | MIC, E. coli PCM2057 (E. coli PCM2057) [µg/mL] | MIC, C. krusei CCM8271 (C. krusei CCM8271) [µg/mL] | α-Helix percentage, POPG (POPG liposomes) [%] | MIC, C. parapsilosis CCM 8260 (C. parapsilosis CCM 8260) [µg/mL] | MIC, C. glabrata CCM8270 (C. glabrata CCM8270) [µg/mL] | MIC, S. aureus PCM2054 (S. aureus PCM2054) [µg/mL] | MIC, C. albicans PCM2566 (C. albicans PCM2566) [µg/mL] | θ222/θ208, POPC (POPC liposomes) | α-Helix percentage, POPC (POPC liposomes) [%] | MIC, S. epidermidis PCM521 (S. epidermidis PCM521) [µg/mL] | MIC, S. epidermidis PCM2118 (S. epidermidis PCM2118) [µg/mL] | hydrodynamic diameter, peak of highest scattering intensity ([1]; 0.25 mM in PBS pH 7.4, 25 °C) [nm] | hydrodynamic diameter, peak of highest scattering intensity [1, 4] [nm] | hydrodynamic diameter [1] [nm] | SI PC3 [2] | SI MCF-7 [3] | pKITC, POPG (POPG LUVs) | also measured
1 | CCCCCCCC(=O)N[C@H](C(=O)N[C@@H](CC(N)=O)C(=O)N[C@@H](Cc1c[nH]c2ccccc12)C(=O)N[C@@H](CCCCN)C(=O)N[C@@H](CCCCN)C(=O)N[C@H](C(=O)N[C@@H](CC(C)C)C(=O)NCC(=O)N[C@@H](CCCCN)C(=O)N[C@H](C(=O)N[C@H](C(=O)N[C@@H](CCCCN)C(=O)N[C@H](C(=O)N[C@@H](C)C(=O)N[C@@H](CCCCN)C(N)=O)C(C)C)[C@@H](C)CC)[C@@H](C)CC)C(C)C)C(C)C [C8-LL-I] (Octanoyl-VNWKKVLGKIIKVAK-NH2) | 25 (≈ 13.5 µM) | 12.5 (≈ 6.76 µM) | 27 | 12.5 (≈ 6.76 µM) | 25 (≈ 13.5 µM) | 12.5 (≈ 6.76 µM) | >50 | 0.85 | 48 | 6.25 (≈ 3.38 µM) | 6.25 (≈ 3.38 µM) | 3360 ± 165 | 404 ± 37 | 3844 ± 1031 | 0.76 | 1.42 | 3.98 ± 0.06 | θ222/θ208, POPG (POPG liposomes): 0.90; effect on S. aureus cells (TEM) (S. aureus cells): induced thinning of the membrane and its disintegration; MIC, S. aureus PCM1650 (S. aureus PCM1650): 12.5 µg/mL (≈ 6.76 µM)
2 | CCCCCCCCCC(=O)N[C@@H](CCCCN)C(=O)N[C@@H](CCCNC(=N)N)C(=O)N[C@@H](Cc1ccccc1)C(=O)N[C@@H](CCCCN)C(=O)N[C@@H](CCCCN)C(=O)N[C@@H](Cc1ccccc1)C(=O)N[C@@H](Cc1ccccc1)C(=O)N[C@@H](CCCCN)C(=O)N[C@@H](CCCCN)C(=O)N[C@@H](CC(C)C)C(=O)N[C@@H](CCCCN)C(N)=O [C10-ATRA-1] (Decanoyl-KRFKKFFKKLK-NH2) | 31.25 (≈ 18.9 µM) | 12.5 (≈ 7.57 µM) | 17 | 25 (≈ 15.1 µM) | >50 | 3.9 (≈ 2.36 µM) | 50 (≈ 30.3 µM) | 0.65 | 14 | 3.13 (≈ 1.9 µM) | 3.13 (≈ 1.9 µM) | 2808 ± 1193 | 284 ± 105 | 1040 ± 343 | 3.92 | 9.47 | 7.06 ± 0.61 | 
3 | CCCCCCCCCCCCCCCC(=O)N[C@@H](CCCCN)C(=O)N[C@@H](CCCNC(=N)N)C(=O)N[C@@H](Cc1ccccc1)C(=O)N[C@@H](CCCCN)C(=O)N[C@@H](CCCCN)C(=O)N[C@@H](Cc1ccccc1)C(=O)N[C@@H](Cc1ccccc1)C(=O)N[C@@H](CCCCN)C(=O)N[C@@H](CCCCN)C(=O)N[C@@H](CC(C)C)C(=O)N[C@@H](CCCCN)C(N)=O [C16-ATRA-1] (Palmitoyl-KRFKKFFKKLK-NH2) | >50 | 2.5 (≈ 1.44 µM) |  | 3.13 (≈ 1.8 µM) | 3.13 (≈ 1.8 µM) | >50 | 2.5 (≈ 1.44 µM) |  |  | 25 (≈ 14.4 µM) | 12.5 (≈ 7.2 µM) |  |  |  |  |  |  | MIC, antifungal activity (fungi Candida spps): ≤ 3.13 µg/mL
